Laboratory results reported in patent publication US6399051B2, “Method and agents for permanently styling hair, with a base consisting of N,N-disubstituted mercaptoacetamides” (priority 1997, dated 2002).

Assays:
[1] = 20 min at 50° C., relative to glycerol monothioglycolate solution pH 9 = 100%; for Standardized Wave Stability WSN pH = 7: waving solution pH 7, 87 mmol reducing agent/100 g; for Standardized Wave Stability WSN pH = 8: waving solution pH 8, 87 mmol reducing agent/100 g; for Standardized Wave Stability WSN pH = 9: waving solution pH 9, 87 mmol reducing agent/100 g

Row | Compound | Standardized Wave Stability WSN pH = 7 [1] [%] | Standardized Wave Stability WSN pH = 8 [1] [%] | Standardized Wave Stability WSN pH = 9 [1] [%] | pKa (pKa determination (H2O))
1 | CN(C)C(=O)CS [Mercaptoacetamide 1, N,N-Dimethylmercaptoacetamide] | 81 | 98 | 98 | 
2 | CCN(CC)C(=O)CS [Mercaptoacetamide 2, N,N-Diethylmercaptoacetamide] | 83 | 98 | 106 | 
3 | CCCCN(C)C(=O)CS [Mercaptoacetamide 3, N-Butyl-N-methylmercaptoacetamide] | 63 | 67 | 87 | 7.873
4 | CCN(CCO)C(=O)CS [Mercaptoacetamide 4, N-Ethyl-N-2′-hydroxyethylmercaptoacetamide] |  |  |  | 7.604
5 | Thiolactic acid [reference compound] | 57 | 50 | 70 | 
